The series concerns cancer cells. The series can be described thus: MTT cytotoxic assay of esterification products (Cytotoxicity activity). It is filed as cell-based, human. The gist of the method: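 Cytotoxicity was read by MTT (Carmichael method, modified), with cells seeded 24 h ahead of treatment. Sixteen human cancer lines spanning bone, lung, bladder, ovary, colon, pancreas, prostate, skin, mouth, kidney, breast, liver, brain, leukemia and cervix were used. Test samples were acyl chloride esterification products of triterpenes, as mixtures or HPLC-purified compounds.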

[1] abbreviates: E4A esterified with Acetyl chloride (Acy = Acetyl), compounds isolated with HPLC.
[2] abbreviates: MTT cytotoxic assay, isolated esterification products of E4A.
Setting [3] is: E4A esterified with 2-propenoyl chloride (Ppe = Propenoyl), compounds isolated with HPLC.
[4] abbreviates: E4A esterified with Propionyl chloride (Ppi = Propionyl), compounds isolated with HPLC.
The mark [5] stands for this setting: E4A esterified with benzoyl chloride (Ben = benzoyl), compounds isolated with HPLC.
Setting [6] is: esterification products of core compound E4A with (2E)-2-pentenoyl chloride (2pe = 2-pentenoyl).
The mark [7] stands for this setting: esterification products of core compound E4A with Butyryl chloride (But = Butyryl).
The mark [8] stands for this setting: esterification products of core compound E4A with Decanoyl chloride (Dec = Decanoyl).
The mark [9] stands for this setting: esterification products of core compound E4A with Isobutyryl chloride (Iso = Isobutyryl).
Where [10] appears, read: esterification products of core compound E4A with Myristoyl chloride (Myr = Myristoyl).
The mark [11] stands for this setting: esterification products of core compound E4A with Octanoyl chloride (Oct = Octanoyl).
The mark [12] stands for this setting: E4A esterified with Cinnamoyl chloride (Cin = Cinnamoyl), compounds isolated with HPLC.
Setting [13] is: esterification products isolated with HPLC, graded strong / moderate / weak.
The mark [14] stands for this setting: E4A esterified with Crotonoyl chloride (Cro = Crotonoyl), compounds isolated with HPLC.

`CC(=O)OCC1(C)C(O)CCC2(C)C1CCC1(C)C2CC=C2C3CC(C)(C)C(OC(C)=O)C(OC(C)=O)C3(COC(C)=O)C(OC(C)=O)CC21C` (centres unmarked) [Compound H16]: under setting [1], the Cytotoxicity activity entry is “weak”.

Regarding `CCC(CC)C(=O)OCC1(C)C(OC(=O)C(CC)CC)CCC2(C)C1CCC1(C)C2CC=C2C3CC(C)(C)C(OC(=O)C(CC)CC)C(OC(=O)C(CC)CC)C3(COC(=O)C(CC)CC)C(O)CC21C` (centres unmarked) [Compound E15], the Cytotoxicity activity result under setting [2] is recorded as “weak”.

Take `CC1(C)CC2C3=CCC4C5(C)CCC(O)C(C)(CO)C5CCC4(C)C3(C)CC(O)C2(COC(=O)c2ccccc2)C(OC(=O)c2ccccc2)C1O` (centres unmarked) [Compound K26]: the Cytotoxicity activity entry runs as follows: under setting [3], “moderate”; under setting [4], “moderate”; under setting [5], “moderate”; under setting [6], “moderate”; under setting [7], “moderate”; under setting [8], “moderate”. The Cytotoxicity activity entry is on record as “moderate” under setting [9], “moderate” under setting [10] and “moderate” under setting [11].

For `CC(=O)OCC1(C)C(OC(C)=O)CCC2(C)C1CCC1(C)C2CC=C2C3CC(C)(C)C(O)C(OC(C)=O)C3(COC(C)=O)C(OC(C)=O)CC21C` (centres unmarked) [Compound H18], the Cytotoxicity activity result under setting [1] is “weak”.

With `CC=C(C)C(=O)OCC1(C)C(O)CCC2(C)C1CCC1(C)C2CC=C2C3CC(C)(C)C(O)C(OC(=O)C(C)=CC)C3(COC(=O)C(C)=CC)C(OC(=O)C(C)=CC)CC21C` (centres unmarked) [Compound A12], under setting [2], the Cytotoxicity activity result is given as “weak”.

Regarding `CC=C(C)C(=O)OCC12C(O)CC3(C)C(=CCC4C5(C)CCC(O)C(C)(CO)C5CCC43C)C1CC(C)(C)C(O)C2OC(=O)C(C)=CC` (centres unmarked) [Compound A26], the Cytotoxicity activity result under setting [2] is reported as “moderate”.

Regarding `CC1(C)CC2C3=CCC4C5(C)CCC(OC(=O)C=Cc6ccccc6)C(C)(COC(=O)C=Cc6ccccc6)C5CCC4(C)C3(C)CC(O)C2(COC(=O)C=Cc2ccccc2)C(O)C1O` (centres unmarked) [Compound J6], the Cytotoxicity activity entry under setting [12] was “moderate”.

Take `CC1(C)CC2C3=CCC4C5(C)CCC(O)C(C)(COC(=O)C=Cc6ccccc6)C5CCC4(C)C3(C)CC(O)C2(CO)C(OC(=O)C=Cc2ccccc2)C1O` (centres unmarked) [Compound J30]: the Cytotoxicity activity entry under setting [12] is “moderate”.

Turning to `CC1(C)CC2C3=CCC4C5(C)CCC(O)C(C)(COC(=O)C=Cc6ccccc6)C5CCC4(C)C3(C)CC(OC(=O)C=Cc3ccccc3)C2(COC(=O)C=Cc2ccccc2)C(O)C1O` (centres unmarked) [Compound J7], under setting [12], the Cytotoxicity activity result is listed as “moderate”.

Turning to `CC1(C)CC2C3=CCC4C5(C)CCC(OC(=O)c6ccccc6)C(C)(COC(=O)c6ccccc6)C5CCC4(C)C3(C)CC(O)C2(CO)C(O)C1O` (centres unmarked) [Compound K31], the Cytotoxicity activity result runs as follows: under setting [3], “moderate”; under setting [4], “moderate”; under setting [5], “moderate”; under setting [6], “moderate”; under setting [7], “moderate”; under setting [8], “moderate”. Also, the Cytotoxicity activity entry by setting is: under setting [9], “moderate”; under setting [10], “moderate”; under setting [11], “moderate”.

Consider `CCC(CC)C(=O)OC1C(OC(=O)C(CC)CC)C2(CO)C(O)CC3(C)C(=CCC4C5(C)CCC(O)C(C)(CO)C5CCC43C)C2CC1(C)C` (centres unmarked) [Compound E24], for which, under setting [2], the Cytotoxicity activity entry is reported as “moderate”.

For `CC=C(C)C(=O)OCC1(C)C(O)CCC2(C)C1CCC1(C)C2CC=C2C3CC(C)(C)C(O)C(OC(=O)CCCCC)C3(COC(=O)CCCCC)C(O)CC21C` (centres unmarked) [Tig—Hex—3], under setting [13], the Cytotoxicity activity entry is listed as “moderate”.

`CC(C)=CC(=O)OCC12C(O)CC3(C)C(=CCC4C5(C)CCC(OC(=O)C=C(C)C)C(C)(CO)C5CCC43C)C1CC(C)(C)C(O)C2O` (centres unmarked) [Compound B27]: under setting [2], the Cytotoxicity activity result is listed as “moderate”.

As for `CC1(C)CC2C3=CCC4C5(C)CCC(OC(=O)c6ccccc6)C(C)(COC(=O)c6ccccc6)C5CCC4(C)C3(C)CC(O)C2(COC(=O)c2ccccc2)C(OC(=O)c2ccccc2)C1OC(=O)c1ccccc1` (centres unmarked) [Compound K15], the Cytotoxicity activity result is, setting by setting: under setting [3], “weak”; under setting [4], “weak”; under setting [5], “weak”; under setting [6], “weak”; under setting [7], “weak”; under setting [8], “weak”. The Cytotoxicity activity entry under setting [9] is reported as “weak”, the Cytotoxicity activity entry under setting [10] was “weak” and the Cytotoxicity activity result under setting [11] was “weak”.

For `CC=C(C)C(=O)OCC1(C)C(OC(C)=O)CCC2(C)C1CCC1(C)C2CC=C2C3CC(C)(C)C(O)C(OC(C)=O)C3(COC(=O)C(C)=CC)C(O)CC21C` (centres unmarked) [Tig—R—Acy—6], the Cytotoxicity activity entry under setting [13] is recorded as “weak”.

Consider `CC=CC(=O)OCC12C(O)CC3(C)C(=CCC4C5(C)CCC(O)C(C)(CO)C5CCC43C)C1CC(C)(C)C(OC(=O)C=CC)C2OC(=O)C=CC` (centres unmarked) [Compound I20], for which the Cytotoxicity activity entry under setting [14] is listed as “moderate”.

In the case of `C=CCCC(=O)OCC1(C)C(OC(=O)CCC=C)CCC2(C)C1CCC1(C)C2CC=C2C3CC(C)(C)C(O)C(OC(=O)CCC=C)C3(COC(=O)CCC=C)C(OC(=O)CCC=C)CC21C` (centres unmarked) [Compound C18], under setting [2], the Cytotoxicity activity result is “weak”.

Turning to `CC(=O)OC1C(OC(C)=O)C2(CO)C(O)CC3(C)C(=CCC4C5(C)CCC(O)C(C)(CO)C5CCC43C)C2CC1(C)C` (centres unmarked) [Compound H24], the Cytotoxicity activity result under setting [1] is “moderate”.

`CC(=O)OCC1(C)C(O)CCC2(C)C1CCC1(C)C2CC=C2C3CC(C)(C)C(O)C(O)C3(CO)C(O)CC21C` (centres unmarked) [Compound H1]: the Cytotoxicity activity entry under setting [1] is recorded as “moderate”.

On to `CC=C(C)C(=O)OCC1(C)C(O)CCC2(C)C1CCC1(C)C2CC=C2C3CC(C)(C)C(O)C(OC(=O)C=Cc4ccccc4)C3(CO)C(O)CC21C` (centres unmarked) [Tig—Cin—6], for which, under setting [13], the Cytotoxicity activity result was “moderate”.

Turning to `CCCCCC(=O)OC1C(OC(=O)CCCCC)C2(CO)C(OC(=O)CCCCC)CC3(C)C(=CCC4C5(C)CCC(O)C(C)(CO)C5CCC43C)C2CC1(C)C` (centres unmarked) [Compound D22], under setting [2], the Cytotoxicity activity entry was “moderate”.

As to `CC=C(C)C(=O)OCC1(C)C(OC(=O)C=C(C)C)CCC2(C)C1CCC1(C)C2CC=C2C3CC(C)(C)C(OC(=O)C=C(C)C)C(O)C3(COC(=O)C(C)=CC)C(O)CC21C` (centres unmarked) [Tig—R—Sen—5], the Cytotoxicity activity entry under setting [13] is given as “weak”.

Turning to `CCC(CC)C(=O)OCC1(C)C(OC(=O)C(CC)CC)CCC2(C)C1CCC1(C)C2CC=C2C3CC(C)(C)C(O)C(O)C3(CO)C(O)CC21C` (centres unmarked) [Compound E31], the Cytotoxicity activity result under setting [2] was “moderate”.

For the compound `CC=C(C)C(=O)OCC1(C)C(O)CCC2(C)C1CCC1(C)C2CC=C2C3CC(C)(C)C(OC(=O)C(C)=CC)C(O)C3(COC(=O)C(C)=CC)C(OC(=O)C(C)=CC)CC21C` (centres unmarked) [Compound A13], under setting [2], the Cytotoxicity activity entry was “weak”.

`CC(C)=CC(=O)OCC1(C)C(O)CCC2(C)C1CCC1(C)C2CC=C2C3CC(C)(C)C(OC(=O)C=C(C)C)C(OC(=O)C=C(C)C)C3(COC(=O)C=C(C)C)C(OC(=O)C=C(C)C)CC21C` (centres unmarked) [Compound B16]: the Cytotoxicity activity result under setting [2] is reported as “weak”.

As for `CC=CC(=O)OCC1(C)C(OC(=O)C=CC)CCC2(C)C1CCC1(C)C2CC=C2C3CC(C)(C)C(OC(=O)C=CC)C(OC(=O)C=CC)C3(COC(=O)C=CC)C(O)CC21C` (centres unmarked) [Compound I15], the Cytotoxicity activity result under setting [14] is “weak”.

Take `CC=CC(=O)OCC1(C)C(O)CCC2(C)C1CCC1(C)C2CC=C2C3CC(C)(C)C(O)C(OC(=O)C=CC)C3(COC(=O)C=CC)C(O)CC21C` (centres unmarked) [Compound I5]: the Cytotoxicity activity entry under setting [14] is reported as “moderate”.

`CC(=O)OCC1(C)C(O)CCC2(C)C1CCC1(C)C2CC=C2C3CC(C)(C)C(O)C(O)C3(CO)C(OC(C)=O)CC21C` (centres unmarked) [Compound H32]: the Cytotoxicity activity entry under setting [1] was “moderate”.

Consider `CC=CC(=O)OCC1(C)C(O)CCC2(C)C1CCC1(C)C2CC=C2C3CC(C)(C)C(OC(=O)C=CC)C(OC(=O)C=CC)C3(COC(=O)C=CC)C(OC(=O)C=CC)CC21C` (centres unmarked) [Compound I16], for which, under setting [14], the Cytotoxicity activity entry is recorded as “weak”.

As to `CC=CC(=O)OCC1(C)C(OC(=O)C=CC)CCC2(C)C1CCC1(C)C2CC=C2C3CC(C)(C)C(O)C(OC(=O)C=CC)C3(COC(=O)C=CC)C(OC(=O)C=CC)CC21C` (centres unmarked) [Compound I18], the Cytotoxicity activity result under setting [14] is given as “weak”.

`CC1(C)CC2C3=CCC4C5(C)CCC(O)C(C)(COC(=O)c6ccccc6)C5CCC4(C)C3(C)CC(OC(=O)c3ccccc3)C2(COC(=O)c2ccccc2)C(OC(=O)c2ccccc2)C1OC(=O)c1ccccc1` (centres unmarked) [Compound K16]: the Cytotoxicity activity result is, setting by setting: under setting [3], “weak”; under setting [4], “weak”; under setting [5], “weak”; under setting [6], “weak”; under setting [7], “weak”; under setting [8], “weak”. Also, the Cytotoxicity activity entry is listed as “weak” under setting [9], “weak” under setting [10] and “weak” under setting [11].

Take `CCC(CC)C(=O)OCC12C(O)CC3(C)C(=CCC4C5(C)CCC(O)C(C)(CO)C5CCC43C)C1CC(C)(C)C(OC(=O)C(CC)CC)C2OC(=O)C(CC)CC` (centres unmarked) [Compound E20]: under setting [2], the Cytotoxicity activity result is recorded as “moderate”.

Turning to `CC(=O)OCC1(C)C(O)CCC2(C)C1CCC1(C)C2CC=C2C3CC(C)(C)C(OC(C)=O)C(O)C3(CO)C(O)CC21C` (centres unmarked) [Compound H29], the Cytotoxicity activity entry under setting [1] is reported as “moderate”.

The values are drawn from patent US20230340012A1, “NATURAL AND SYNTHETIC COMPOUNDS FOR TREATING CANCER AND OTHER DISEASES” (PACIFIC ARROW LIMITED, priority 2009, published 2023).
